Assay in all cases: growth of human tumour cells (NCI), 48 h
For test [1], the system named is HCC-2998 colon.
Test [2] has as its system UACC-62 melanoma.
Test [3] concerns HT29 colon.
The test system of test [4] is LOX IMVI melanoma.
Test [5] has as its system SNB-75 CNS.
Test [6] deals with U251 CNS.
Test [7] has as its system NCI-H226 lung.
The subject of test [8] is SK-MEL-2 melanoma.
The subject of test [9] is SR leukemia.
Test [10] relates to SNB-19 CNS.

Drawing on PubChem BioAssay (NCI), this text covers GI50 and TGI for 8 molecules.

Values joined by “and” are separate entries in the source; they are usually repeats but may differ in a detail not shown here. Identical values can stand only once.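 Grown in 96-well plates, cells were treated for 48 hours with each compound at five concentrations. Insufficient inhibition: endpoint recorded as highest concentration tested. At the GI50, growth is halved. Definition used: TGI = concentration required for complete inhibition of growth.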 Bounds are passed on as bounds.

As for `CCOC(=O)[C@H](CSSc1ncnc2cc[nH]c12)NC(=O)[C@@H](C)c1ccc2cc(OC)ccc2c1`, the GI50 in [1] was 1.29 µM; in test [2] it was 0.425 µM; in [3] it was 1.38 µM; in test [4], 0.081 µM; in test [5], 0.388 µM; in test [6], 4.77 µM. Further, the GI50 is 0.614 µM in test [7], 0.791 µM in test [8], 0.385 µM in test [9] and 44.4 µM in test [10]. Besides, the TGI in test [1] is > 100 µM; in test [2], > 100 µM; in test [3], > 100 µM; in [4], 18.1 µM; in [5] it was > 100 µM; in [6], > 100 µM. Moreover, the TGI in [7] was > 100 µM; in [8], > 29 µM; in [9] it was > 100 µM; in [10], > 100 µM.
`CN1CCN(C(=O)c2ccc(NC(=O)Nc3ccc(N(C)c4ccnc(Nc5ccc(CS(C)(=O)=O)cc5)n4)cc3)cc2)CC1`: the GI50 is > 25 µM in test [1]; 9.99 µM in test [2]; 11.4 µM in [3]; 10 µM in test [4]; 12.7 µM in test [5]; 6.26 µM in [6]. In addition, the GI50 was 6.79 µM in [7], > 12.7 µM in [8], > 12.7 µM in test [9] and 12.7 µM in [10]. Moreover, the TGI in test [1], in [2], in test [3], in test [4], in [5] and in test [6] was > 25 µM each time. Moreover, the TGI in test [7], in test [8], in test [9] and in test [10] was > 25 µM throughout.
Regarding `Cc1cc(Cl)ccc1Nc1sc(C(=O)c2cc3cc(Cl)ccc3o2)c(N)c1C#N`, the TGI is 7.24 µM in test [1]; > 100 µM in test [2]; > 100 µM in test [3]; > 100 µM in [4]; 20.8 µM in test [5]; 16.2 µM in [6]. Further, the TGI in [7] is > 100 µM; in test [8] it was > 100 µM; in test [9] it was > 100 µM; in test [10], 25.1 µM.
`CSc1ccc(-c2cn3ccsc3n2)c(O)c1`: the TGI is > 100 µM in test [1]; > 100 µM in test [2]; > 100 µM in [3]; > 56.5 µM in test [4]; > 94.7 µM in test [5]; > 100 µM in test [6]. For the same molecule, the TGI in test [7] was > 100 µM; in [8], > 100 µM; in test [9], 88.3 µM; in test [10] it was > 100 µM.
On to `COc1cc2c(c(OC)c1OC)-c1ccc(OC)c(=O)cc1[C@@H](NC(=O)CCl)CC2`, for which the GI50 in test [1], in [2], in [3], in [4], in test [5] and in [6] was < 0.01 µM each time. Moreover, the GI50 in test [7] was 0.0357 µM; in test [8], < 0.01 µM; in [9], < 0.01 µM; in test [10], < 0.01 µM. The TGI in [1] worked out at 22.3 µM; in test [2], 20.1 µM; in [3] it was 10.1 µM; in [5], 54.7 µM; in [6], 2.02 µM; in test [7] it was 10.9 µM. Besides, the TGI was 10.3 µM in test [8], > 95.7 µM in [9] and 28.7 µM in test [10].
On to `C=C(C)C(=O)NC(N)=NC#N`, for which the TGI in test [1] was 261 µM; in test [2], > 81.7 µM and 230 µM; in test [3], 248 µM; in [4], 96 µM; in test [5], 289 µM; in test [6], 260 µM. Further, the TGI is 330 µM in test [7]; 261 µM in test [8]; 87.9 µM and 132 µM in test [9]; 330 µM in [10]. Also, the GI50 in test [2] is 87 µM; in [3], 102 µM; in test [4], 28.6 µM; in test [5], 154 µM; in test [6], 131 µM; in test [8] it was 134 µM.
On to `CCCCCCCCCCCCCOC(=O)c1c(C)[nH]c(/C=C2\N=C(c3ccc[nH]3)C=C2OC)c1C`, for which the GI50 in [1] is 0.0307 µM; in test [2] it was 0.0329 µM; in [3] it was < 0.0126 µM; in test [5] it was 0.919 µM; in test [6] it was 0.0764 µM; in [7], 1.02 µM. The GI50 in [8] was 0.0294 µM; in test [9], < 0.0118 µM; in test [10], 5.37 µM. For the same molecule, the TGI in test [1] was > 44.4 µM; in test [2] it was 0.139 µM; in [3], > 100 µM; in test [4], 0.0223 µM; in [5] it was 10.9 µM; in [6] it was 17.7 µM. Moreover, the TGI in test [7] was > 57.4 µM; in [8], 0.157 µM; in test [9], 0.145 µM; in test [10] it was > 87.6 µM.
Regarding `COc1cc2c(c(OC)c1OC)-c1ccc([O-])c(=O)cc1[C@@H](NC(C)=O)CC2.COc1cc2c(c(OC)c1OC)-c1ccc([O-])c(=O)cc1[C@@H](NC(C)=O)CC2.[Cu+2]`, the GI50 is 2.58 µM in test [1]; 1.86 µM in [2]; 3.43 µM in test [3]; 4.3 µM in test [4]; 5.39 µM in test [5]; 3.48 µM in test [6]. Moreover, the GI50 was 5.13 µM in test [7], 3.59 µM in test [8], 1.54 µM in [9] and 14.7 µM in [10]. The TGI in test [1] is 7.2 µM; in test [2], 11.4 µM; in [3], > 100 µM; in test [4], > 100 µM; in test [5], > 100 µM; in test [6] it was > 100 µM. Also, the TGI in test [7] was > 100 µM; in [8], > 100 µM; in [9] it was 6.89 µM; in test [10], > 100 µM.
